In US10317393B2, “Alkynyl sugar analogs for labeling and visualization of glycoconjugates in cells” (Academia Sinica, priority 2007, dated 2019):

Legend:
[1] = tested on: Hep3B cells; assay: Confocal microscopy of fluorescently labeled glycoconjugates; format: cell-based, human; details: 200 micromolar Fuc or 25 micromolar ManNAc analogs, 3 days; probe 6 or 7
Procedure: (§1) One exemplary implementation of the disclosure provides a method to visualize the localization of glycoconjugates using alkynyl sugar tagging. To visualize the localization of glycoconjugates tagged with alkynyl sugars, adherent cells are grown on slides in the presence or absence of derivatized alkynyl sugars. After a 3-day-incubation, cells attached to the slides are fixed, permeabilized, and labeled with either biotin probe 6 or fluorogenic probe 7 for fluorescent signal analysis with confocal microscopy (FIGS. 4, 5, 10A, 10B and 11). For comparison, samples are also stained with wheat germ agglutinin (WGA, a Golgi marker) and Hoechst 33342 (marker for cell nuclei).
(§2) Human hepatocellular carcinoma cells (Hep3B) or breast adenocarcinoma cells (MCF-7) were seeded onto six-well plates (3×10^5/2 ml per well) containing glass coverslips, and were cultivated in 10% FCS/DMEM or 10% FCS/RPMI medium 1640. […]

[2] = tested on: MCF-7 cells; assay: as above; format: cell-based, human; details: 200 micromolar Fuc or 25 micromolar ManNAc analogs, 3 days; probe 6 or 7
Procedure: as §1, §2

[3] = tested on: Hep3B cells; assay: Pulse-chase time-lapse microscopy of fucosylated glycans; format: cell-based, human; details: 30 minute pulse, biotin/streptavidin-FITC
Procedure: Additional cellular structures are visualized using alternative labeling systems (e.g., WGA lectin used to visualize Golgi apparatus, and Hoechst used to visualize nucleus).
Pulse-chased MOE experiments entail growing cells of interest to log-phase levels and then exposing them to the sugar analogs in the growth medium, as prescribed by standard MOE, but only for a 30 minute pulse, before replenishing with fresh medium devoid of sugars. Post sugar-pulse, the cells are grown for various lengths of time before analysis.
Cells of interest may be grown to log phase and then presented with various derivatized sugars for a limited period of time; for example, 30 minutes. After the limited period of time, the cells are no longer presented with the various sugars. The cells with glycoconjugates incorporating various tagged sugars may then be visualized over time through secondary detection and/or microscopy in relation to various intracellular and intercellular structures, in order to collect data on the trafficking and relative location of tagged and labeled glycoconjugates.

[4] = tested on: cell extracts; assay: Labeling and detection of glycoconjugates in cell extracts (SDS/PAGE, Western blot); format: cell-based; details: 200 micromolar Fuc or 25 micromolar ManNAc analogs, 3 days
Text: Because the herein disclosed labeling system enables the identification of cellular glycoconjugates, it can also serve well in glyco-proteomic applications aimed at discovering unknown glycosylated targets for diagnostic and therapeutic purposes. […] Soluble lysate fractions are labeled with biotin probe 6, fluorogenic probe 7, or a standard azido-derivatized rhodamine probe used in proteomics before separating proteins by SDS/PAGE. […] Positive fluorescent signal was also detected in alkynyl positive protein lysate when labeled with fluorogenic 3-azido-7-hydroxycoumarin 7 and rhodamine probes (FIG. 6B and FIG. 11). […] Moreover, further processing, including a streptavidin/avidin enrichment or gel slice purification, will allow for comparative identification by proteomic mass spectrometry techniques of unknown glycoconjugates expressed at different cell status, for instance, un-differentiated verses differentiated cells, or normal verses cancer cells.
Cells were seeded at 3×10^6/8 ml per 10-cm dish and treated with control and test sugars (200 micromolar Fuc 3 vs. alkynyl derivatized Fuc 1, or 25 micromolar ManNAc 5 vs. alkynyl derivatized ManNAc 2) in growth medium at 37° C. […] Signal was developed with SuperSignal Chemiluminescent Substrate and detected by exposure to x-ray film. […] Rhodamine gels were analyzed.

[5] = tested on: Jurkat cells; assay: Cell growth analysis after treatment with sugar analogs (cell numbers counted); format: cell-based, human
Procedure: FIGS. 1A, 1B, 1C and 1D show analysis of cells labeled with Fuc analogs. […] Jurkat cells were grown in the presence of 200 micromolar each Fuc analog for 3 days before cell numbers were counted. The data represent the percentage of treated cells vs. untreated cells (n=4).
It is also disclosed how treatment with exogenous Fuc analog affects cell growth rate. […] In contrast, the addition of 200 micromolar azido Fuc 2 inhibits cell growth considerably, by 65% when compared with the untreated cells. […] Such toxicity may lead to global change in expression, therefore a nontoxic probe is preferable for accurate probing of glycoconjugate expression.
Jurkat cells were cultivated (2×10^6/10 ml) in RPMI medium 1640 supplemented with 10% FCS and various concentrations of peracetylated alkynyl sugars 1, 2, or 4 or native sugars 3 or 5, for 1-3 days at 37° C. Cells were then harvested, washed with 0.1% FCS/PBS, and resuspended (10^6 cells) in 100 microliters of click reaction solution (0.1 mM biotin probe 6 or fluorogenic probe 7/0.1 mM Tris-thiazoleamine catalyst/0.1 mM CuSO4/0.5 mM sodium ascorbate, in PBS). The reaction was incubated at room temperature for 30 min, and then the cells were washed twice with 0.1% FCS/PBS. Cells treated with biotin probe 6 were subsequently stained with fluorescein-conjugated streptavidin (0.5 microgram per sample in 50 microliters of 1% FCS/PBS) for 30 min at 4° C., and washed three times with 1% FCS/PBS. Data were acquired by BD LSR II with FACSDiva software, and were analyzed by CellQuestPro software (BD Biosciences). Detection of fluorescent adduct with probe 7 was monitored with a 408 nm laser and a 440/40 bandpass filter for excitation and emission, respectively.

**Q.** “1,2,3,4-tetraacetyl alkynyl fucose [alkynyl Fuc 1]” was tested. Which “labeling signal by confocal microscopy” value [1] did it give?
**A.** strong punctate-labeling signal

**Q.** What about the “labeling signal by confocal microscopy” value [2] of the same substance?
**A.** strong punctate-labeling signal

**Q.** What about the “signal for fucosylated glycans co-localized with Golgi marker after pulse” value [3] of the same substance?
**A.** co-localized yellow signal as early as 2 h

**Q.** And the “labeling signal in proteins by Western blot or fluorescence” value [4]?
**A.** specific biotin-labeling signals

**Q.** What about the “number of cells after 3 days versus cells grown without exogenous Fuc” value ([5]; 200 micromolar, 3 days) of the same substance?
**A.** similar

**Q.** And the “toxicity to cells (summary statement)” value ([5]; at levels required for efficient labeling)?
**A.** much less toxic
